Consider eleven compounds from US7718663B2, “Quinazoline derivatives and medicaments” (Nippon Shinyaku Co., Ltd., priority 2002, dated 2010).

In test [1] the target is T1, human nociceptin receptor (Homo sapiens, UniProt P41146).
T1 construct: expressed in transfected cells
The experiment in a line: Nociceptin receptor binding assay ([3H]nociceptin). As to conditions: cell membrane of human nociceptin receptor-expressing cell, 0.08 nM [3H]nociceptin, 25° C. 60 minutes; read-out: Affinity for nociceptin receptors Ki value. On the procedure:
Nociceptin Receptor Binding Assay
A cell membrane suspension obtained from a human nociceptin receptor-expressing cell was prepared so that it contained 5 to 10 μg/mL of the membrane protein in a Tris buffer [50 mM Tris-HCl (pH7.8), 5 mM MgCl2, 1 mM EGTA [Ethylene Glycol Bis(β-aminoethylether)-N,N,N′,N′-tetraacetic Acid], 0.1% BSA (Bovine Serum Alubumin)]. To this, [^3H]nociceptin (diluted at the final concentration of 0.08 nM with the Tris buffer) and each test compound was added and the mixture was incubated at 25° C. for 60 minutes. Using a cell harvester and a washing solution [50 mM Tris-HCl (pH7.8), 4° C.], the membrane was recovered onto a GF/B filter which had been pretreated with 0.3% PEI (polyethylenimine), which was then washed further 3 times. The filter was transferred to a vial, to which a scintillator was added, and the radioactivity was measured using a liquid scintillation counter. Noted that a non-specific binding was regarded as a binding in the presence of 10 μM nociceptin, and a specific binding was obtained by subtracting the non-specific binding from the total binding. From a ratio of binding inhibition in the presence of the tested substance, an IC50 value was obtained, and was then used together with the Kd value for [^3H]nociceptin to calculate the Ki value for the tested substance.

A further test concerns the target T2, rat μ opioid receptor (Rattus norvegicus, UniProt P33535).
T2 construct: expressed in transfected cells
As to the kind of experiment: μ opioid receptor binding assay ([3H]diprenorphine). As to conditions: rat μ opioid receptor-expressing cell membrane, 0.5 nM [3H]diprenorphine, 25° C. 60 minutes; read-out: Affinity for μ receptors Ki value. Here is the method:
μ Opioid Receptor Binding Assay
A rat μ opioid receptor-expressing cell membrane preparation was prepared so that it contained 8.5 μg/mL of the membrane protein in a Tris buffer [50 mM Tris-HCl (pH7.8), 5 mM MgCl2, 1 mM EGTA, 0.1% BSA]. To this, [^3H]diprenorphine (diluted at the final concentration of 0.5 nM with the Tris buffer) and each test compound was added and the mixture was incubated at 25° C. for 60 minutes. Using a cell harvester and a washing solution [50 mM Tris-HCl (pH7.8), 4° C.], the membrane was recovered onto a GF/B filter which had been pretreated with 0.3% PEI, which was then washed further 3 times. The filter was transferred to a vial, to which a scintillator was added, and the radioactivity was measured using a liquid scintillation counter. Noted that a non-specific binding was regarded as a binding in the presence of […], and a specific binding was obtained by subtracting the non-specific binding from the total binding. From a ratio of binding inhibition in the presence of the tested substance, an IC50 value was obtained, and was then used together with the Kd value for [^3H]diprenorphine to calculate the Ki value for the tested substance.

The next test deals with ICR male mice. As to the kind of experiment: Mouse eye-scratching behavior induced by serotonin. As to conditions: 0.5% test compound, 10 μl dropped into eye five minutes before 1% serotonin; counted for 10 minutes. In kind it is in vivo. On the procedure:
Effect on Mouse Eye-scratching Behavior Induced by Serotonin
After dropping 10 μl of 1% serotonin hydrochloride (hereinafter referred to as serotonin) into right eye of ICR male mice (4 to 6 weeks old), the number of eye-scratcing behavior induced by dropping of serotonin was measured for 10 minutes.
As the test compound, inventive compounds of Example 1, Example 2, Example 3, Example 6, Example 12, Example 29, Example 52, Example 364, Example 381 and Example 383 were used. Five minutes before dropping serotonin, 10 μl of each test compound was dropped. Distilled water as a solvent of the test compound was dropped as a control group.

SMILES strings stand for the structures. Counter-ions that a name gives are not always drawn.

T2 sequence (P33535 whole entry): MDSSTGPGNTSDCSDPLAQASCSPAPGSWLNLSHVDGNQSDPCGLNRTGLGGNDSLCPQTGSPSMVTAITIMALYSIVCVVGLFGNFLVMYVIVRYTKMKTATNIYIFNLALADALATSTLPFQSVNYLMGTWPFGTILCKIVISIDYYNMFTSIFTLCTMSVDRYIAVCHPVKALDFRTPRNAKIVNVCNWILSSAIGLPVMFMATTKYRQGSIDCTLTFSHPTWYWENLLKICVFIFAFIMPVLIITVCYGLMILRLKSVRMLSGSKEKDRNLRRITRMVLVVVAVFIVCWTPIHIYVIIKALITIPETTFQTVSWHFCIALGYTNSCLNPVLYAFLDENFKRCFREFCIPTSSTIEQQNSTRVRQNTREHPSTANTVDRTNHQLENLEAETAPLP
T1 sequence (P41146 whole entry): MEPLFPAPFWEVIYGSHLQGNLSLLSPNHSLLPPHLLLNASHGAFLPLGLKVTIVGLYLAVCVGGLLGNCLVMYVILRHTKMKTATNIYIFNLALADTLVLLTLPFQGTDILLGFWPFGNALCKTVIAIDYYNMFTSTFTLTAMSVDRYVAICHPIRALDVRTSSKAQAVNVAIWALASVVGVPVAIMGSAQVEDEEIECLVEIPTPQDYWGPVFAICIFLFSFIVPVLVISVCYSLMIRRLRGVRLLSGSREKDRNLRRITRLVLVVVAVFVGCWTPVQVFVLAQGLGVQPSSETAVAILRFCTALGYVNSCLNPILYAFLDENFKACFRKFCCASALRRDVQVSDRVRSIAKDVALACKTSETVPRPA

Turning to `Cc1ccc2nc(NC(=O)c3cc4ccccc4s3)nc(N[C@H]3CCCC[C@H]3NC(=N)N)c2c1.Cl.Cl` [Example 1, N-{4-[((1S,2R)-2-{[amino(imino)methyl]amino}cyclohexyl)amino]-6-methylquinazolin-2-yl}-1-benzothiophene-2-carboxamide dihydrochloride], the Ki in test [1] was 0.15 nM; on rat μ opioid receptor it was 180 nM. For the same compound, the “Average number of scratching behavior” value with ICR male mice was 9.57.

Regarding `COc1ccc(NC(=O)c2nc(N[C@H]3CCCC[C@H]3NC(=N)N)c3cc(C)ccc3n2)cc1.Cl.Cl` [Example 2, 4-[((1S,2R)-2-{[amino(imino)methyl]amino}cyclohexyl)amino]-N-(4-methoxyphenyl)-6-methylquinazoline-2-carboxamide dihydrochloride], in the test with ICR male mice, the “Average number of scratching behavior” value came out at 7.25.

In the case of `Cc1ccc2nc(NC(=O)c3cc4ccccc4o3)nc(N[C@H]3CCCC[C@H]3NC(=N)N)c2c1.Cl.Cl` [Example 3, N-{4-[((1S,2R)-2-{[amino(imino)methyl]amino}cyclohexyl)amino]-6-methylquinazolin-2-yl}-1-benzofuran-2-carboxamide dihydrochloride], the results for the Ki (in test [1]; on rat μ opioid receptor) were 0.14 nM and 260 nM, respectively. Besides, in the test on ICR male mice, the “Average number of scratching behavior” value was 2.33.

For the compound `COc1ccc(C(=O)Nc2nc(N[C@H]3CCCC[C@H]3NC(=N)N)c3cc(C)ccc3n2)c(OC)c1.Cl.Cl` [Example 6, N-{4-[((1S,2R)-2-{[amino(imino)methyl]amino}cyclohexyl)amino]-6-methylquinazolin-2-yl}-2,4-dimethoxybenzamide dihydrochloride], the values for the inhibition constant Ki (in test [1]; at rat μ opioid receptor) were 0.67 nM and 550 nM, respectively. Also, the “Average number of scratching behavior” value in the test on ICR male mice was found to be 2.38.

On to `COc1ccc2cc(C(=O)Nc3nc(N[C@H]4CCCC[C@H]4NC(=N)N)c4cc(C)ccc4n3)ccc2c1` [Example 7, N-{4-[((1S,2R)-2-{[amino(imino)methyl]amino}cyclohexyl)amino]-6-methylquinazolin-2-yl}-6-methoxy-2-naphthamide dihydrochloride], for which the Ki is 0.65 nM in test [1] and 570 nM at rat μ opioid receptor.

With `COc1ccc(C(=O)Nc2nc(N[C@H]3CCCC[C@H]3NC(=N)N)c3cc(C)ccc3n2)cc1.Cl.Cl` [Example 12, N-{4-[((1S,2R)-2-{[amino(imino)methyl]amino}cyclohexyl)amino]-6-methylquinazolin-2-yl}-4-methoxybenzamide dihydrochloride], the results for the Ki (in test [1]; at rat μ opioid receptor) were 0.57 nM and 680 nM, respectively. Also, the “Average number of scratching behavior” value with ICR male mice was found to be 8.17.

As to `Cc1ccc2nc(C(=O)NCC(C)(C)C)nc(N[C@H]3CCCC[C@H]3NC(=N)N)c2c1.Cl.Cl` [Example 29, 4-[((1S,2R)-2-{[amino(imino)methyl]amino}cyclohexyl)amino]-6-methyl-N-neopentylquinazoline-2-carboxamide dihydrochloride], the “Average number of scratching behavior” value in the test with ICR male mice is reported as 1.67.

Turning to `Cc1ccc2nc(C(=O)Nc3ccc(C)c(C)c3)nc(N[C@H]3CCCC[C@H]3NC(=N)N)c2c1.Cl.Cl` [Example 52, 4-[((1S,2R)-2-{[amino(imino)methyl]amino}cyclohexyl)amino]-N-(3,4-dimethylphenyl)-6-methylquinazoline-2-carboxamide dihydrochloride], the “Average number of scratching behavior” value with ICR male mice came out at 4.50.

Turning to `Cc1ccc2nc(C(=O)NC3CCCCCC3)nc(N[C@H]3CCCC[C@H]3NC(=N)N)c2c1.Cl.Cl` [Example 364, 4-[((1S,2R)-2-{[amino(imino)methyl]amino}cyclohexyl)amino]-N-cycloheptyl-6-methylquinazoline-2-carboxamide dihydrochloride], in the test with ICR male mice, the “Average number of scratching behavior” value came out at 5.17.

Take `Cc1ccc2nc(C(=O)NCCc3ccsc3)nc(N[C@H]3CCCC[C@H]3NC(=N)N)c2c1.Cl.Cl` [Example 381, 4-[((1S,2R)-2-{[amino(imino)methyl]amino}cyclohexyl)amino]-6-methyl-N-[2-(3-thienyl)ethyl]quinazoline-2-carboxamide dihydrochloride]: in the test with ICR male mice, the “Average number of scratching behavior” value was 5.00.

Consider `Cc1ccc2nc(C(=O)NCC(C)C)nc(N[C@H]3CCCC[C@H]3NC(=N)N)c2c1.Cl.Cl` [Example 383, 4-[((1S,2R)-2-{[amino(imino)methyl]amino}cyclohexyl)amino]-N-isobutyl-6-methylquinazoline-2-carboxamide dihydrochloride], for which the “Average number of scratching behavior” value with ICR male mice came to 2.33.
